Assays:
Assay in all cases: relative viability (nuclei count vs DMSO), 5 days (fraction); higher = more cells survive
GSK-J4 + Lapatinib = compound: CCOC(=O)CCNc1cc(N2CCc3ccccc3CC2)nc(-c2ccccn2)n1 [GSK-J4] + CS(=O)(=O)CCNCc1ccc(-c2ccc3ncnc(Nc4ccc(OCc5cccc(F)c5)c(Cl)c4)c3c2)o1 [Lapatinib] (partner 2 µM)
Outline: (§1)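 One day after seeding in 1536-well plates, lung cancer cell lines were dosed by pin tool. Dosing was either single-drug or a fixed anchor-drug dose plus five library-drug doses (not always all listed) in √10 steps. After 5 days, nuclei were stained in one fix-and-stain step and counted on 4× images, and relative viability is the nuclei count of treated wells over that of vehicle wells, given as the median of duplicate plates.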

AZ3146 + Tozasertib = compound: CN1CCC(CC1)OC2=CC(=C(C=C2)NC3=NC=C4C(=N3)N(C(=O)N4C)C5CCCC5)OC [AZ3146] + Cc1cc(Nc2cc(N3CCN(C)CC3)nc(Sc3ccc(NC(=O)C4CC4)cc3)n2)n[nH]1 [Tozasertib] (partner 0.1 µM)
Outline: as §1

AZ3146 + Alpelisib = compound: CN1CCC(CC1)OC2=CC(=C(C=C2)NC3=NC=C4C(=N3)N(C(=O)N4C)C5CCCC5)OC [AZ3146] + Cc1nc(NC(=O)N2CCC[C@H]2C(N)=O)sc1-c1ccnc(C(C)(C)C(F)(F)F)c1 [Alpelisib] (partner 2 µM)
Outline: as §1

AZ3146 + Olaparib = compound: CN1CCC(CC1)OC2=CC(=C(C=C2)NC3=NC=C4C(=N3)N(C(=O)N4C)C5CCCC5)OC [AZ3146] + O=C(c1cc(Cc2n[nH]c(=O)c3ccccc23)ccc1F)N1CCN(C(=O)C2CC2)CC1 [Olaparib] (partner 8 µM)
Outline: as §1

Cell Line | relative viability (GSK-J4 + Lapatinib; first compound 0.5 µM) | relative viability (GSK-J4 + Lapatinib; first compound 1.581 µM) | relative viability (GSK-J4 + Lapatinib; first compound 5 µM) | relative viability (GSK-J4 + Lapatinib; first compound 15.81 µM) | relative viability (GSK-J4 + Lapatinib; first compound 50 µM) | relative viability (AZ3146 + Tozasertib; first compound 0.08 µM) | relative viability (AZ3146 + Tozasertib; first compound 0.253 µM) | relative viability (AZ3146 + Tozasertib; first compound 0.8 µM) | relative viability (AZ3146 + Tozasertib; first compound 2.53 µM) | relative viability (AZ3146 + Tozasertib; first compound 8 µM) | relative viability (AZ3146 + Alpelisib; first compound 0.08 µM) | relative viability (AZ3146 + Alpelisib; first compound 0.253 µM) | relative viability (AZ3146 + Alpelisib; first compound 0.8 µM) | relative viability (AZ3146 + Alpelisib; first compound 2.53 µM) | relative viability (AZ3146 + Alpelisib; first compound 8 µM) | relative viability (AZ3146 + Olaparib; first compound 0.253 µM) | relative viability (AZ3146 + Olaparib; first compound 0.8 µM) | relative viability (AZ3146 + Olaparib; first compound 2.53 µM) | relative viability (AZ3146 + Olaparib; first compound 8 µM) | relative viability (AZ3146 + Olaparib; first compound 0.08 µM)
LU99A | 0.992 | 0.79 | 0.842 | 0.921 | 0.607 | 0.279 | 0.269 | 0.248 | 0.238 | 0.245 | 0.494 | 0.564 | 0.515 | 0.606 | 0.438 | 0.26 | 0.24 | 0.271 | 0.257 | 
LXF-289 | 0.899 | 0.821 | 0.907 | 0.934 | 0.866 | 0.194 | 0.189 | 0.158 | 0.216 | 0.189 | 1.02 | 1 | 0.96 | 1.06 | 0.946 | 0.989 | 1.07 | 1.18 | 1.06 | 1.13
NCI-H23 | 0.994 |  | 0.772 | 0.778 | 0.674 | 0.315 | 0.338 | 0.362 | 0.301 | 0.338 | 0.591 | 0.668 | 0.676 | 0.744 | 0.738 | 0.289 | 0.389 | 0.356 | 0.338 | 0.291
NCI-H322M | 0.533 | 0.623 | 0.842 | 0.514 | 0.528 | 0.455 | 0.466 | 0.439 | 0.495 | 0.509 | 0.759 | 0.83 | 0.699 | 0.807 | 0.785 | 0.839 | 0.644 | 0.813 | 0.729 | 0.839
NCI-H358 | 0.452 | 0.414 | 0.434 | 0.456 | 0.367 | 0.0884 | 0.107 | 0.105 | 0.123 | 0.12 | 0.897 | 0.741 | 0.783 | 0.889 | 0.78 | 0.578 | 0.592 | 0.583 | 0.442 | 0.555
NCI-H460 | 1.05 | 0.924 | 0.809 | 0.955 | 0.364 | 0.277 | 0.422 | 0.118 | 0.0719 | 0.0801 | 0.375 | 0.466 | 0.478 | 0.573 | 0.254 | 0.45 | 0.416 | 0.449 | 0.352 | 0.242
NCI-H520 | 0.846 | 0.515 | 0.939 | 0.74 | 0.658 | 0.345 | 0.433 | 0.371 | 0.423 | 0.408 | 0.689 | 0.943 | 0.791 | 0.834 | 1.04 | 0.352 | 0.396 | 0.418 | 0.289 | 0.306
NCI-H596 | 1.01 | 1.02 | 1 | 0.866 | 0.916 | 0.949 | 0.972 | 0.979 | 0.728 | 0.524 | 0.482 | 0.484 | 0.489 | 0.487 | 0.428 | 0.738 | 0.752 | 0.77 | 0.765 | 0.677
NCI-H647 | 1.01 | 0.954 | 0.94 | 0.977 | 0.815 | 0.236 | 0.358 | 0.143 | 0.191 | 0.157 | 1.05 | 1.21 | 1.27 | 1.28 | 0.534 | 0.474 | 0.592 | 0.603 | 0.237 | 0.412
NCI-H650 | 0.841 | 0.579 | 0.614 | 0.783 | 0.614 | 0.491 | 0.769 | 0.75 | 0.794 | 0.509 | 0.813 | 1.08 | 0.915 | 1.14 | 1.25 | 0.361 | 0.385 | 0.46 | 0.413 | 0.271
NCI-H661 | 0.483 | 0.472 | 0.405 | 0.349 | 0.386 | 0.359 | 0.362 | 0.357 | 0.347 | 0.358 | 0.729 | 0.549 | 0.565 | 0.689 | 1.03 | 0.768 | 0.736 | 0.791 | 0.678 | 0.806
NCI-H727 | 0.827 |  | 0.996 | 0.795 | 0.5 | 0.546 | 0.495 | 0.455 | 0.575 | 0.439 | 0.506 | 0.457 | 0.48 | 0.612 | 0.333 | 0.632 | 0.701 | 0.853 | 0.775 | 0.632
NCI-H838 | 1.25 | 0.748 |  | 0.938 | 0.858 | 0.249 | 0.252 | 0.254 | 0.263 | 0.183 | 0.95 | 1.06 | 0.883 | 0.985 | 0.858 | 0.769 | 0.766 | 0.724 | 0.253 | 0.771
NCI-H1355 | 0.946 | 0.875 | 0.944 | 0.916 | 0.919 | 0.371 | 0.573 | 0.485 | 0.404 | 0.359 | 0.836 | 0.849 | 0.897 | 0.723 | 0.809 | 0.761 | 0.759 | 0.83 | 0.807 | 0.72
NCI-H1395 | 1.22 | 0.955 | 0.759 | 0.883 | 0.648 | 0.647 | 0.832 | 0.888 | 0.791 | 0.522 | 1.08 | 1.18 | 0.998 | 0.994 | 1.26 | 0.532 |  | 0.568 | 0.552 | 0.485
NCI-H1437 | 0.851 | 0.693 | 0.713 | 0.727 | 0.17 | 0.355 | 0.42 | 0.394 | 0.354 | 0.265 | 0.954 | 1.05 | 0.876 | 0.96 | 0.911 | 0.611 | 0.611 | 0.635 | 0.532 | 0.589

— the supplement of paper PMC10307832
